# Results from EP4644375A1, “SUBSTITUTED HYDROQUINOLINES FOR THE TREATMENT OF GLIOBLASTOMA MULTIFORME” (Molius Saglik Teknolojileri Anonim Sirketi, priority 2024, dated 2025).
# Tests used:
# [1] = test system: U138-MG human glioma cell; test: Cell proliferation analysis (MTT); assay type: cell-based; settings: MTT; for activity at 10 µM / inhibition at 10 µM: Homo sapiens, 48 h, two days
# U87-MG human glioma cell = test: Cell proliferation analysis (MTT); assay type: cell-based; settings: MTT; for activity at 10 µM / inhibition at 10 µM: Homo sapiens, U-87 MG, 48 h, two days
# GBM xenograft rat model = test: In vivo GBM rat model: MRI analysis of tumor volumes; settings: GBM rats, 30 mg/kg oral, 5 days, MRI 14th vs 28th day
# Experimental: (§1) An in Vivo study was performed to assess the therapeutic potential of TR-G002, TR-G045, TR-G053, TR-G066, TR-G071 and TR-G091 in the GBM xenograft rat model when administered orally by gavage for five consecutive days. 152 female rats of the Sprague Dawley strain were allocated to the study. Six groups of sixteen females were given dose of 30 mg/kg of the respective target compounds. […] The study design can be seen in Fig. 11 and Table 10.
# Female Sprague Dawley rats (age: 6-8 weeks; weight: 255-310 g; ATADEM, Erzurum, Turkey) were utilized in the study. Rats underwent anaesthesia with 5% isoflurane, maintained at 2% isoflurane (1 L/min oxygen), and were positioned in a stereotactic frame for cell implantation (Stoelting Co., IL). […] A burr hole was drilled 1-mm anterior and 3-mm lateral to the right bregma. A microsyringe (Hamilton 1700 series) containing 5×10^4 U87-MG cells suspended in 5 µL of medium at 37 °C was advanced to a depth of 4 mm into the brain. The cells were injected at a rate of 3 µL/ min. Bone wax was used to fill the burr hole to prevent cell suspension reflux. The incision was sutured, and 1 mL of Meloxicam (5 mg/mL; Metacam, Boehringer Ingelheim Vetmedica, Ingelheim, Germany) was administered via a subcutaneous injection.
# Fourteen days after inoculation, tumor development in rats was visualized and confirmed through magnetic resonance imaging (MRI). Rats confirmed to have developed tumors were then distributed into six different groups for treatment. […] 9 days after the final treatment dose, the rats underwent another MRI scan and blood and brain samples were taken under anaesthesia.
# The anaesthetic was administered via an intraperitoneal route on animals fixed in the supine position with parallel hind limbs. MRI was performed using a 3 Tesla clinical scanner (Magnetom Skyra; Siemens Healthineers, Erlangen, Germany). Rats were placed in the prone position. T2-SPACE (sampling perfection with application-optimized contrast using different flip angle Evolution) sequence was obtained to view the brain in coronal and transverse planes. (TR: 6000 ms, TE: 100 ms, voxel size: 0.5 × 0.5 × 1 mm, 34 slices, slice thickness: 2 mm, slice spacing: 0.6 mm). The volume measurements of brain tumors were performed manually. One radiologist calculated the tumour volume - manually measuring tumour length (L), width (W), and height (H) - and then calculated the tumour volume using the formula 0.5236 × L × W × H (Stuppner S et al., 2020).
# [2] = PAMPA permeability assay, gastrointestinal mimicking membrane; settings: 500 µM, 18 hours, 37 °C
# Experimental: Permeability assay and analyses were performed according to the manufacturer's instructions. […] After the loading of lipid solutions into the pores, all drug solutions and the permeability controls were put onto the lipid membrane in donor wells. The permeability assay was performed for 18 hours at 37 °C incubator. All samples were collected from acceptor wells after the incubation period was finished and the absorbance values were measured with equilibrium standards for normalization.
# [3] = In vivo GBM rat model: haematology
# Experimental: (§2) The parameters that were analysed can be seen in Table 11.
# [4] = In vivo GBM rat model: plasma chemistry; settings: GBM rats, 30 mg/kg oral, 5 days, plasma at necropsy
# Experimental: as §2
# [5] = Peripheral blood micronucleus assay; assay type: in vivo, Rat
# Experimental: Blood smears were made on clean microscope slides, allowed to air-dry, treated with methanol for fixation, and then stained with Giemsa (10% in 0.1 mM of sodium phosphate buffer, pH 6.8) for 10 min. After washing with PBS, the slides were examined under a light microscope. The frequencies of micronuclei (MN) were calculated by evaluating 1000 cells per animal.
# [6] = In vivo GBM rat model: body weight; settings: treated GBM rats compared to the GBM rats, 30 mg/kg oral, 5 days
# Experimental: as §1
# Individual body weights were manually calculated. Group mean body weights; group mean body weight changes and organ weights were also manually calculated without statistical analysis. To determine the density of positive staining from immunohistochemical and immunofluorescence staining images, five randomly selected areas were evaluated using ZEISS Zen Imaging Software. Data were statistically defined as mean and standard deviation (mean ± SD) for the percentage of the area. One-way ANOVA followed by the Tukey test was performed to compare immunoreactive cells and immune-positive stained areas with healthy controls. GraphPad Prism software was used for analysis.
# [7] = GBM rats, 30 mg/kg oral, 5 days, blood at necropsy
structure (smiles),measurement,setting,value
"O=C1CCc2cc(OS(=O)(=O)c3ccc([N+](=O)[O-])cc3)ccc2N1 [TR-G046, 2-oxo-1,2,3,4-tetrahydroquinolin-6-yl 4-nitrobenzenesulfonate]",activity at 10 µM,[1],76%
same,inhibition at 10 µM,[1],24%
same,activity at 10 µM,U87-MG human glioma cell,60%
same,inhibition at 10 µM,U87-MG human glioma cell,40%
same,tumor size,GBM xenograft rat model,reduced the tumor size
"C#CCOc1ccc2c(c1)CCC(=O)N2 [TR-G006, 6-(prop-2-yn-1-yloxy)-3,4-dihydroquinolin-2(1H)-one]",activity at 10 µM,[1],86%
same,inhibition at 10 µM,[1],14%
same,activity at 10 µM,U87-MG human glioma cell,86%
same,inhibition at 10 µM,U87-MG human glioma cell,14%
same,permeability through the gastrointestinal mimicking membrane,[2],highly permeable
"CN(C(=O)Oc1ccc2c(c1)CCC(=O)N2)c1ccccc1 [TR-G072, 2-oxo-1,2,3,4-tetrahydroquinolin-6-yl methyl(phenyl)carbamate]",activity at 10 µM,[1],85%
same,inhibition at 10 µM,[1],15%
same,activity at 10 µM,U87-MG human glioma cell,85%
same,inhibition at 10 µM,U87-MG human glioma cell,15%
same,permeability through the gastrointestinal mimicking membrane,[2],highly permeable
"Cc1ccc(F)cc1NC(=O)Oc1ccc2c(c1)CCC(=O)N2 [TR-G097, 2-oxo-1,2,3,4-tetrahydroquinolin-6-yl (5-fluoro-2-methylphenyl)carbamate]",activity at 10 µM,[1],73%
same,inhibition at 10 µM,[1],27%
same,activity at 10 µM,U87-MG human glioma cell,79%
same,inhibition at 10 µM,U87-MG human glioma cell,21%
same,permeability through the gastrointestinal mimicking membrane,[2],highly permeable
"O=C(COc1ccc2c(c1)CCC(=O)N2)NN=Cc1cccs1 [TR-G024, 2-((2-oxo-1,2,3,4-tetrahydroquinolin-6-yl)oxy)-N'-(thiophen-2-ylmethylene)acetohydrazide]",activity at 10 µM,[1],70%
same,inhibition at 10 µM,[1],30%
same,activity at 10 µM,U87-MG human glioma cell,80%
same,inhibition at 10 µM,U87-MG human glioma cell,20%
same,permeability through the gastrointestinal mimicking membrane,[2],highly permeable
"C=CCOc1ccc2c(c1)CCC(=O)N2 [TR-G014, 6-(allyloxy)-3,4-dihydroquinolin-2(1H)-one]",activity at 10 µM,[1],51%
same,inhibition at 10 µM,[1],49%
same,activity at 10 µM,U87-MG human glioma cell,82%
same,inhibition at 10 µM,U87-MG human glioma cell,18%
same,permeability through the gastrointestinal mimicking membrane,[2],highly permeable
"O=C(COc1ccc2c(c1)CCC(=O)N2)N/N=C/c1ccc(F)cc1 [TR-G128, (E)-N'-(4-fluorobenzylidene)-2-((2-oxo-1,2,3,4-tetrahydroquinolin-6-yl)oxy)acetohydrazide]",activity at 10 µM,[1],68%
same,inhibition at 10 µM,[1],32%
same,activity at 10 µM,U87-MG human glioma cell,68%
same,inhibition at 10 µM,U87-MG human glioma cell,32%
same,permeability through the gastrointestinal mimicking membrane,[2],highly permeable
"Cn1nnc2c(C(N)=O)ncn2c1=O [TMZ, Temozolomide, reference compound]",Inhibition (%),[1]; reference drugs,22%
same,Proliferation (%),[1]; reference drugs,78%
same,Inhibition (%),U87-MG human glioma cell; reference drugs,20%
same,Proliferation (%),U87-MG human glioma cell; reference drugs,80%
same,HCT,[3]; [7],48.13%
same,HGB,[3]; [7],15.13 g/dL
same,MCH,[3]; [7],18.10 pg
same,MCHC,[3]; [7],31.47 g/dL
same,MCV,[3]; [7],57.55 fL
same,PLT,[3]; [7],829.67 10^9 /L
same,RBC,[3]; [7],8.36 10^12/L
same,WBC,[3]; [7],4.92 10^9/L
same,PLT levels,[3]; compared to GBM rats,no significant changes
same,WBC level,[3]; compared to the GBM rats,did not cause any significant changes
same,ALP,[4],128.7 IU/L
same,ALT,[4],42.4 IU/L
same,AST,[4],114.63 IU/L
same,GLU,[4],311 mg/dL
same,LDH,[4],499.85 IU/L
same,LDL C,[4],5.12 mmol/L
same,TG,[4],111 mg/dL
same,MN frequency,"[5]; GBM rats, 30 mg/kg oral, 5 days, 1000 cells per animal evaluated",14.32 ± 3.10
same,MN frequency (comparison),[5]; treated GBM rats,highest observed MN frequency
same,body weight,[6],No significant change in body weight
